In ChEMBL document CHEMBL1201862, “PubChem BioAssay data set” (2004):
Activity calls are given as the source filed them.

Legend:
[1] = control 3'UTR Renilla luciferase suppression, dose response, counter-screen for Shn3 inhibitor project, cell-based, Clone20-Shn3RL, cherry-picked (AID 624133); assay type: functional
[2] = HepG2 cell cytotoxicity, dose response, cytotoxicity control for Shn3 inhibitor project, CellTiter-Glo, cherry-picked (AID 624134); assay type: functional, cell-based
[3] = Shn3 3'UTR reporter inhibitors, dose response, cell-based, Clone20 osteoblasts, firefly luciferase, cherry-picked (AID 624132); assay type: functional;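 note: firefly luciferase luminescence from reporter carrying the Shn3 3'UTR in osteoblasts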
[4] = molecular target: T1, Short transient receptor potential channel 4 (Mus musculus, UniProt Q9QUQ5); test: mouse TRPC4 channel activators, dose response, cell-based, HEK293 TRPC4/mu-opioid, Fluo-4 calcium (AID 434937); assay type: functional
T1 sequence (Q9QUQ5 whole entry): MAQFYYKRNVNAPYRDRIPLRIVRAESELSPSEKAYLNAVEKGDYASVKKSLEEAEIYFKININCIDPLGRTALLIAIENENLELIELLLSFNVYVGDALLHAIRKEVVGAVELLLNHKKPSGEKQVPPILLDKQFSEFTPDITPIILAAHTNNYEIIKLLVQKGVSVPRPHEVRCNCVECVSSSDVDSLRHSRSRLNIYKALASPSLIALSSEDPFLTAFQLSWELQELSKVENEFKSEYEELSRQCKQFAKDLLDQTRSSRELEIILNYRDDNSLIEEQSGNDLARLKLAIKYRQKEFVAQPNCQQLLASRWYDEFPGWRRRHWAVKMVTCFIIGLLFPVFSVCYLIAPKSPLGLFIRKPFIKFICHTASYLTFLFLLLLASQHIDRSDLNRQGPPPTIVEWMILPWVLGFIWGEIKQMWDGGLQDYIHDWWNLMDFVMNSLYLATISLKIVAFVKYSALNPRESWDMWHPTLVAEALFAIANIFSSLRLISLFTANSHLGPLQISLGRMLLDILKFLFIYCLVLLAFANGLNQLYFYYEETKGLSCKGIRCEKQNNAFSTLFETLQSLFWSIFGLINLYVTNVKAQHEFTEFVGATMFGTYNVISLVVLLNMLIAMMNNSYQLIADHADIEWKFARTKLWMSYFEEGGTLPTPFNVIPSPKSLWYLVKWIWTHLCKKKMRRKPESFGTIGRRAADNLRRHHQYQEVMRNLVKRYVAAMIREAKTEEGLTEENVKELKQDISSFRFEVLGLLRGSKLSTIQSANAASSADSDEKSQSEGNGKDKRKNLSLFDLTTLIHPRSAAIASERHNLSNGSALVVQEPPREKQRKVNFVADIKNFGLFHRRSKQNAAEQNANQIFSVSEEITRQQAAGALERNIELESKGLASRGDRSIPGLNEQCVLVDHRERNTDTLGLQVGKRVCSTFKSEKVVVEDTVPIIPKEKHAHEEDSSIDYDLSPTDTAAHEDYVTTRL

[5] = molecular target: T2, Polyadenylate-binding protein 1 (Homo sapiens, UniProt P11940); test: PABP1 MLLE–PAM2 interaction inhibitors, dose response, miRNA deadenylation inhibitor project, biochemical, fluorescence polarization, Cy5-PAM2 peptide, secondary (AID 602260); assay type: functional; settings: read-out: IC50_Mean
[6] = molecular target: T2, Polyadenylate-binding protein 1; test: PABP1 MLLE–PAM2 binding inhibitor potency, dose response, biochemical, fluorescence polarization, FITC-PAM2 peptide (AID 602259); assay type: functional; settings: read-out: IC50_Mean
Leucine aminopeptidase = molecular target: T3, Leucine aminopeptidase (Plasmodium falciparum 3D7, UniProt Q8IL11); test: P. falciparum M17LAP inhibitors, primary screen, biochemical, fluorogenic H-Leu-NHMec substrate, 1536-well (AID 1619); assay type: functional
T3 sequence (Q8IL11 whole entry): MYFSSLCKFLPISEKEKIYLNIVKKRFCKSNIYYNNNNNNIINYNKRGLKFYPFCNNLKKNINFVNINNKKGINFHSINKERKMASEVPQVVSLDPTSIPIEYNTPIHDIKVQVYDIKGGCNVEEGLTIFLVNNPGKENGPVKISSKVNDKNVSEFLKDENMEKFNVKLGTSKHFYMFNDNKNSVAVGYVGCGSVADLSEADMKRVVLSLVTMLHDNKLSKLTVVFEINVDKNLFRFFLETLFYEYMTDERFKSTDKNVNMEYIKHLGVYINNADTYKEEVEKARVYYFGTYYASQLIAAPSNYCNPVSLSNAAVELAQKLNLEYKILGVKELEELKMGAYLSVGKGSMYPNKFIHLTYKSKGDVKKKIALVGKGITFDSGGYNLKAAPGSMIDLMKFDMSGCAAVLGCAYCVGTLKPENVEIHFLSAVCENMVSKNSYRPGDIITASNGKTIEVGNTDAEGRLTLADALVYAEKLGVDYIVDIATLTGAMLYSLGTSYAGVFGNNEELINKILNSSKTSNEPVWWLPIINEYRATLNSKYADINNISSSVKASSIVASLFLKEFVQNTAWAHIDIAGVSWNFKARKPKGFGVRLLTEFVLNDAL

[7] = molecular target: T4, Zinc finger protein mex-5 (Caenorhabditis elegans, UniProt Q9XUB2); test: MEX-5/TCR-2 RNA interaction inhibitors, dose response, biochemical, C. elegans, fluorescence polarization (AID 1960)
T4 sequence (Q9XUB2 whole entry): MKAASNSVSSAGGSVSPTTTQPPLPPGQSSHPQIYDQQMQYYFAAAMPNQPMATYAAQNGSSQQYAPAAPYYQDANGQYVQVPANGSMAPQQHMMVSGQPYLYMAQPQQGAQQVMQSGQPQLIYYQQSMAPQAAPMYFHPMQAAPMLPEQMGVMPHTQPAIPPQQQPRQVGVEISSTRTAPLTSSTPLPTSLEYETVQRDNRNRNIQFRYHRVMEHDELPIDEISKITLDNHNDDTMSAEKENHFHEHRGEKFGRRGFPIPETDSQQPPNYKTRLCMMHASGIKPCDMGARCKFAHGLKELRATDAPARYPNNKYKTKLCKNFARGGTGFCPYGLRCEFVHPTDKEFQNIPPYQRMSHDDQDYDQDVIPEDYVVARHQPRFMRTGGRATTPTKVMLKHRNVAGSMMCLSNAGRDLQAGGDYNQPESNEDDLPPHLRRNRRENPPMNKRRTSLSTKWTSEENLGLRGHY

HEK293 = test: inhibitors of LMP1-driven NF-kB reporter, dose response, cell-based, HEK293, luciferase, cherry-pick (AID 588343); assay type: functional; settings: Homo sapiens
[8] = molecular target: T5, RNA-binding protein pos-1 (Caenorhabditis elegans, UniProt G5EF15); test: inhibitors of POS-1/mex-3 RNA binding, dose response, biochemical, fluorescence polarization (AID 1964);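 note: purified POS-1 fused to maltose binding protein made in E. coli; potency of compounds blocking POS-1 binding to fluorescent RNA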
T5 sequence (G5EF15 whole entry): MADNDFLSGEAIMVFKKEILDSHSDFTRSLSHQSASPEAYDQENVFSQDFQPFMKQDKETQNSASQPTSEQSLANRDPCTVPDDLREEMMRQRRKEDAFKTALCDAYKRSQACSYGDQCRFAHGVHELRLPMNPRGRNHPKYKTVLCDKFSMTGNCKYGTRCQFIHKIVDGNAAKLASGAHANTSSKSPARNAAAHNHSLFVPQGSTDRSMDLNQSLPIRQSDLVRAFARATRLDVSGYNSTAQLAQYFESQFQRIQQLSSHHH

[9] = molecular target: T6, Heat shock factor protein 1 (Mus musculus, UniProt P38532); test: inhibition of MG132-induced HSE-luciferase signal, confirmation, cell-based, NIH3T3, luminescence, dose retest (AID 2382); assay type: functional;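 note: NIH3T3 fibroblasts with HSF1-driven luciferase reporter stressed by proteasome inhibitor MG132; luminescence from HSF1-driven luciferase expression after 8 hours of MG132 stress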
T6 sequence (P38532 whole entry): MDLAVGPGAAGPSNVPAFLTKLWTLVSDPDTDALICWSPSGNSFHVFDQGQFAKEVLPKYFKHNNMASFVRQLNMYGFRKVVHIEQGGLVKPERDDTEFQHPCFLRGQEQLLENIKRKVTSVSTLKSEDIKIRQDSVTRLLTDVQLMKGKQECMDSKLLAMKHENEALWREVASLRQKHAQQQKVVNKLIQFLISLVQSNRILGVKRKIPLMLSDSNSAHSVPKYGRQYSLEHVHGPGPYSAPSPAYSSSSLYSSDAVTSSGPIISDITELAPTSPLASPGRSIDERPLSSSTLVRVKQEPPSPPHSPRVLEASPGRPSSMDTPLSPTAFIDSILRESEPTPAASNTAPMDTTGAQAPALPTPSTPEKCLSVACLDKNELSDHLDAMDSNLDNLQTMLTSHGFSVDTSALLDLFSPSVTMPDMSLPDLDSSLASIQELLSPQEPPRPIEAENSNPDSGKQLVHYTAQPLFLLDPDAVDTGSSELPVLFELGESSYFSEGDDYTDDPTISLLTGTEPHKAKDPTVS

[10] = system: Streptococcus sp. 'group A'; test: growth inhibition of control SK(-) GAS strain, dose response, counter-screen for streptokinase expression inhibitor project, luminescence, kanamycin, BacTiterGlo, confirmation (AID 1900); assay type: functional, organism-based
Streptococcus = test: Group A Streptococcus viability loss, dose response, counter-screen for streptokinase expression inhibitor project, luminescence, BacTiterGlo (AID 1915); assay type: functional, organism-based;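 note: potency for reduction of bacterial viability or growth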
Cytochrome P450 2C19 = Cytochrome P450 2C19 (Homo sapiens, UniProt P33261); test: Cytochrome panel assay with activity outcomes. Panel member name: p450-cyp2c19 Compounds with AC50 equal or less than 10 uM are considered active; assay type: functional; settings: read-out: AC50
P388/ADR = test: cells; assay type: functional; settings: Mus musculus
SN12K1 = test: cells; assay type: functional; settings: Homo sapiens
P388 = test: cells; assay type: functional; settings: Mus musculus

T2 sequence (P11940 whole entry): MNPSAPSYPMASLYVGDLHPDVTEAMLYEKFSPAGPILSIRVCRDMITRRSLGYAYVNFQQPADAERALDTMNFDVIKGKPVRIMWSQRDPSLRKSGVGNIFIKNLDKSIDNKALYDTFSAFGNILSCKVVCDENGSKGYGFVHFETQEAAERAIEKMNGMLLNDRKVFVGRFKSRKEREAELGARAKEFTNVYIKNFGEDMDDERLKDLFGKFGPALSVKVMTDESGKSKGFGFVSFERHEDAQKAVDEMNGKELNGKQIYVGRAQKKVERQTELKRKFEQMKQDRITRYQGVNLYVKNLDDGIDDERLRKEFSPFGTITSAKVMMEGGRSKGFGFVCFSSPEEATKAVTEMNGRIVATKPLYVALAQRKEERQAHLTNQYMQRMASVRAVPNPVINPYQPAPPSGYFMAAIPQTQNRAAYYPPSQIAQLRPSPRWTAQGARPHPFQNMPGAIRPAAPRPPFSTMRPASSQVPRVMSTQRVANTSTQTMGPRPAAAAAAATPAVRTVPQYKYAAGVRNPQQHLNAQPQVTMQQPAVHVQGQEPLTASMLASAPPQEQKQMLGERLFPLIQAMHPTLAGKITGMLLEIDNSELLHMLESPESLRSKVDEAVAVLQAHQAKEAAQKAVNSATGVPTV
Chain of Cytochrome P450 2C19 (P33261 whole entry): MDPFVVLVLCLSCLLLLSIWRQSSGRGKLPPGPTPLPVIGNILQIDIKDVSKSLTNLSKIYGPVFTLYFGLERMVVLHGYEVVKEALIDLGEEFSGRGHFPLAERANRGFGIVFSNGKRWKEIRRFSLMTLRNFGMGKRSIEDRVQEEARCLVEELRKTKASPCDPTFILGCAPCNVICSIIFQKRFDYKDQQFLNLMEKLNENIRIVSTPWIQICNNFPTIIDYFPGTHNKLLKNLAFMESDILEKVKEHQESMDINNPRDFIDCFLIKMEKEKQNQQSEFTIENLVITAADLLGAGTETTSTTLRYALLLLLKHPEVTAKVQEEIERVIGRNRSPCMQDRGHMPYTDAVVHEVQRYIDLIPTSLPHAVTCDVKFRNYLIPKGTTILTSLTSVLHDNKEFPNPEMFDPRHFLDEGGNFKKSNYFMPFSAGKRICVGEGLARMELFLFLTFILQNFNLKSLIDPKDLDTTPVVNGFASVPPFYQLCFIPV

## Cc1cc(C)c(-c2csc(NC(=O)CCCc3nc(O)c4ccccc4n3)n2)c(C)c1
[1]
  AC50: 5.38 µM (active)
[2]
  AC50: > 70 µM (inactive)
[3]
  AC50: 2.97 µM (active)

## Cc1onc(-c2ccccc2Cl)c1C(=O)N1CCN(C/C=C/c2ccccc2)CC1
[4]
  EC50: 5.96 µM (active)

## CC1Sc2ccc(S(=O)(=O)N3CCC(C(=O)Nc4cccc(Cl)c4)CC3)cc2NC1=O (centres undefined)
[1]
  AC50: 8.77 µM (active)
[2]
  AC50: 44.6 µM (active)
[3]
  AC50: 3.27 µM (active)

## CCOc1ccccc1CN1CCNC(=O)C1CC(=O)N(C)CCc1ccccn1 (centres undefined)
[4]
  EC50: 2.11 µM (active)

## CC(Sc1ccc2c(c1)OCCO2)C(=O)Nc1ncc(Cl)cc1Cl (centres undefined)
[5]
  IC50: > 66 µM (inactive)
[6]
  IC50: > 66 µM (inactive)
Leucine aminopeptidase
  IC50: 3.8 µM (active)

## Nc1nc(SCc2nc(-c3ccccc3)no2)[nH]c(=O)c1-c1ccccc1
Leucine aminopeptidase
  IC50: 7.2 µM (active)

## CC1=NN(C(N)=S)C(=O)C1N=Nc1cccc(C(=O)O)c1 (centres undefined)
[7]
  EC50: 22.7 µM (active)
HEK293
  AC50: 33.1 µM (active)
[8]
  EC50: 35.1 µM (active)

## CC1Cc2ccccc2N1c1ncnc(N)c1[N+](=O)[O-] (centres undefined)
HEK293
  AC50: 2.41 µM (active)

## CCOC(=O)Cc1csc(NC(=O)NC2(C(F)(F)F)Oc3cc(Cl)c(Cl)cc3O2)n1
Leucine aminopeptidase
  IC50: 27.7 µM (active)
[9]
  EC50: > 195 µM (not active)

## Cc1ccccc1OCC(=O)NNC(=S)NC(=O)c1ccco1
[4]
  EC50: 9.44 µM (active)
[10]
  EC50: 0.599 µM (active)
Streptococcus
  EC50: 2.45 µM (active)

## CC1SC(C)C(=O)N(CC(=O)NCc2ccc(F)cc2)C1=O (centres undefined)
Leucine aminopeptidase
  IC50: 31.4 µM (active)

## CCOC(=O)[C@@H]1CCNC[C@@H]1c1ccccc1
[4]
  EC50: 3.35 µM (active)

## Cc1ccc(C(=O)Nc2ccc(Oc3ccc(C(=O)O)c(C(=O)O)c3)cc2)cc1C
Leucine aminopeptidase
  IC50: 13.2 µM (active)

## Cc1csc(SC(C)C(=O)Nc2ccc(Cl)cn2)n1 (centres undefined)
Leucine aminopeptidase
  IC50: 6.63 µM (active)

## CN(Cc1nccn1C)C(=O)c1cc(COc2ccc3ncccc3c2)on1
[1]
  AC50: 36.8 µM (active)
[2]
  AC50: > 70 µM (inactive)
[3]
  AC50: 6.97 µM (active)

## Cn1c(C(=O)O)c(CC(=O)NCC2COc3ccccc3O2)c2ccccc21 (centres undefined)
Cytochrome P450 2C19
  AC50: 25.1 µM (inconclusive)
Leucine aminopeptidase
  IC50: 15.7 µM (active)

## CC(C)CCCCCCCCCCCCC(=O)NCC(=O)NC1C(O)C(O)C(Nc2[nH]cnc3ncnc2-3)OC1C(O)CO (centres undefined)
P388/ADR
  GI50: 0.00128 µM (active)
SN12K1
  GI50: 0.00531 µM (active)
P388
  GI50: 0.000211 µM (active)

## CCC/C=C/C=C/C(=O)OC1/C(=C/C(=O)OC)CC2CC(C(C)O)OC(=O)CC(O)CC3CC(OC(C)=O)C(C)(C)C(O)(CC4C/C(=C/C(=O)OC)CC(/C=C/C(C)(C)C1(O)O2)O4)O3 (centres undefined)
P388
  GI50: 2.16 µM (inactive)

## C=C1C(=O)OC2C=C(C)CC3C=C(CCC=C(C)CCC12)C(=O)O3 (centres undefined)
P388/ADR
  GI50: 22.1 µM (inactive)
SN12K1
  GI50: 58.3 µM (inactive)
P388
  GI50: 12.4 µM (inactive)

## CC(C)(C)OC(=O)NC1CCC(C(C)(C)C)CC1 (centres undefined)
P388/ADR
  GI50: 30 µM (inactive)
SN12K1
  GI50: 45.4 µM (inactive)
P388
  GI50: 15.9 µM (inactive)

## CC(=O)OC1C(O)C(C)OC(OC(=O)C2CCC3C(C2)OC2(CC(OC(=O)/C=C/c4ccccc4)C(C)CO2)C32CO2)C1OC1OC(C)C(O)C(O)C1O (centres undefined)
P388/ADR
  GI50: 20.9 µM (inactive)
SN12K1
  GI50: 0.0348 µM (active)
P388
  GI50: 0.306 µM (active)

## C#CC[N+](CCO)(CCO)CCCCCCCCCCCCCCCCCC
P388/ADR
  GI50: 8.55 µM (inactive)
SN12K1
  GI50: 13 µM (inactive)
P388
  GI50: 1.08 µM (active)

## CC1OC(CO)(n2cnc3c(N)ncnc32)C(O)C1O (centres undefined)
P388/ADR
  GI50: > 100 µM (inactive)
SN12K1
  GI50: > 100 µM (inactive)
P388
  GI50: > 100 µM (inactive)
